# Source: patent US20250213735A1, “NEUROPEPTIDE Y1 RECEPTOR (NPY1R) TARGETED THERAPEUTICS AND USES THEREOF” (Radionetics Oncology, Inc., priority 2023, published 2025)
# Target: hNPY1R (Homo sapiens (Human), UniProt P25929)
# Experiment: NPY1R binding assay (SK-N-MC membrane, [125I]-Peptide YY competition);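 also: bound radioligand separated by filtration over GF/C filter plates and counted, Ki obtained by non-linear regression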
# Conditions: crude SK-N-MC membranes endogenously expressing NPY1R; [125I]-Peptide YY (human) 0.05 nM; 120 min at room temperature; read-out: hNPY1R binding Ki
# Sequence of hNPY1R (P25929 whole entry): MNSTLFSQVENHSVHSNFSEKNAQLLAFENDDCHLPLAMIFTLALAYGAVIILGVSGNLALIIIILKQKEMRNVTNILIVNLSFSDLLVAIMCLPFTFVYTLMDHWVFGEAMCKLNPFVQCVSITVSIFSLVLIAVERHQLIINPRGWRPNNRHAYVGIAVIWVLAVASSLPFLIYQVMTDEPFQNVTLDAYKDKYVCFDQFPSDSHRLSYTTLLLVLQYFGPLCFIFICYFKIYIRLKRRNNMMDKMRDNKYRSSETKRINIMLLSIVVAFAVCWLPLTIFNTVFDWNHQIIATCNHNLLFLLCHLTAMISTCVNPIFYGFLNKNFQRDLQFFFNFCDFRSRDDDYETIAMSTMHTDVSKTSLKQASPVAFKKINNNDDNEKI
row,Compound,Ki
1,"CC1(C)C2CN([C@@H](C(=O)N[C@H](CCCNC(=N)N)C(=O)NCc3ccc(O)cc3)c3ccccc3)CC21 (stereo partly drawn) [88B, (2R)-2-((2R)-2-(6,6-dimethyl-3-azabicyclo[3.1.0]hexan-3-yl)-2-phenylacetamido)-5-guanidino-N-(4-hydroxybenzyl)pentanamide]",> 1 µM
2,"CCC(=O)NCCNC(=O)/N=C(/N)NCCC[C@@H](NC(=O)[C@H](c1cccc(NCCCNc2c(NCCCCCCNC(=O)CN3CCN(CC(=O)O)CCN(CC(=O)O)CCN(CC(=O)O)CC3)c(=O)c2=O)c1)N1Cc2ccccc2C1)C(=O)NCc1ccc(O)cc1 [compound 2, 2,2′,2″-(10-(2-((6-((2-((3-((3-((1S,4R,Z)-9-amino-4-((4-hydroxybenzyl)carbamoyl)-1-(isoindolin-2-yl)-2,11,16-trioxo-3,8,10,12,15-pentaazaoctadec-9-en-1-yl)phenyl)amino)propyl)amino)-3,4-dioxocyclobut-1-en-1-yl)amino)hexyl)amino)-2-oxoethyl)-1,4,7,10-tetraazacyclododecane-1,4,7-triyl)triacetic acid-formic acid (1/1)]",< 0.01 µM
3,"CCC(=O)NCCNC(=O)/N=C(/N)NCCC[C@@H](NC(=O)[C@H](c1ccc(OCCCN2CCN(C(=O)CCNC(=O)CN3CCN(CC(=O)O)CCN(CC(=O)O)CCN(CC(=O)O)CC3)CC2)cc1)N1Cc2ccccc2C1)C(=O)NCc1c(F)cc(O)cc1F [compound 4, 2,2′,2″-(10-(2-((3-(4-(3-(4-((1S,4R,Z)-9-amino-4-((2,6-difluoro-4-hydroxybenzyl)carbamoyl)-1-(isoindolin-2-yl)-2,11,16-trioxo-3,8,10,12,15-pentaazaoctadec-9-en-1-yl)phenoxy)propyl)piperazin-1-yl)-3-oxopropyl)amino)-2-oxoethyl)-1,4,7,10-tetraazacyclododecane-1,4,7-triyl)triacetic acid-2,2,2-trifluoroacetic acid (1/1)]",< 0.01 µM
4,"CCC(=O)NCCNC(=O)/N=C(/N)NCCC[C@@H](NC(=O)[C@H](c1ccc(OCCCNC2CCN(C(=O)CCCCCNC(=O)CN3CCN(CC(=O)O)CCN(CC(=O)O)CCN(CC(=O)O)CC3)CC2)cc1)N1Cc2ccccc2C1)C(=O)NCc1c(F)cc(O)cc1F [compound 5, 2,2′,2″-(10-(2-((6-(4-((3-(4-((1S,4R,Z)-9-amino-4-((2,6-difluoro-4-hydroxybenzyl)carbamoyl)-1-(isoindolin-2-yl)-2,11,16-trioxo-3,8,10,12,15-pentaazaoctadec-9-en-1-yl)phenoxy)propyl)amino)piperidin-1-yl)-6-oxohexyl)amino)-2-oxoethyl)-1,4,7,10-tetraazacyclododecane-1,4,7-triyl)triacetic acid-2,2,2-trifluoroacetic acid (1/1)]",< 0.01 µM
5,"CCC(=O)NCCNC(=O)/N=C(/N)NCCC[C@@H](NC(=O)[C@H](c1ccc(OCCCNC(=O)C[C@H](O)C[C@H](O)CCNC(=O)CN2CCN(CC(=O)O)CCN(CC(=O)O)CCN(CC(=O)O)CC2)cc1)N1Cc2ccccc2C1)C(=O)NCc1c(F)cc(O)cc1F [compound 6, 2,2′,2″-(10-(2-(((3R,5R)-7-((3-(4-((1S,4R,Z)-9-amino-4-((2,6-difluoro-4-hydroxybenzyl)carbamoyl)-1-(isoindolin-2-yl)-2,11,16-trioxo-3,8,10,12,15-pentaazaoctadec-9-en-1-yl)phenoxy)propyl)amino)-3,5-dihydroxy-7-oxoheptyl)amino)-2-oxoethyl)-1,4,7,10-tetraazacyclododecane-1,4,7-triyl)triacetic acid-2,2,2-trifluoroacetic acid (1/1)]",< 0.01 µM
6,"CCC(=O)NCCNC(=O)/N=C(/N)NCCC[C@@H](NC(=O)[C@H](c1ccc(OCCCNC(=O)CCC(=O)NCCNC(=O)CN2CCN(CC(=O)O)CCN(CC(=O)O)CCN(CC(=O)O)CC2)cc1)N1Cc2ccccc2C1)C(=O)NCc1c(F)cc(O)cc1F [compound 7, 2,2′,2″-(10-(2-((2-(4-((3-(4-((1S,4R,Z)-9-amino-4-((2,6-difluoro-4-hydroxybenzyl)carbamoyl)-1-(isoindolin-2-yl)-2,11,16-trioxo-3,8,10,12,15-pentaazaoctadec-9-en-1-yl)phenoxy)propyl)amino)-4-oxobutanamido)ethyl)amino)-2-oxoethyl)-1,4,7,10-tetraazacyclododecane-1,4,7-triyl)triacetic acid-2,2,2-trifluoroacetic acid (1/1)]",< 0.01 µM
7,"CCC(=O)NCCNC(=O)/N=C(/N)NCCC[C@@H](NC(=O)[C@H](c1ccccc1)N1Cc2cccc(NC(=O)CCCNC(=O)CCCCCNC(=O)CN3CCN(CC(=O)O)CCN(CC(=O)O)CCN(CC(=O)O)CC3)c2C1)C(=O)NCc1c(F)cc(O)cc1F [compound 9, 2,2′,2″-(10-(2-((6-((4-((2-((1S,4R,Z)-9-amino-4-((2,6-difluoro-4-hydroxybenzyl)carbamoyl)-2,11,16-trioxo-1-phenyl-3,8,10,12,15-pentaazaoctadec-9-en-1-yl)isoindolin-4-yl)amino)-4-oxobutyl)amino)-6-oxohexyl)amino)-2-oxoethyl)-1,4,7,10-tetraazacyclododecane-1,4,7-triyl)triacetic acid]",< 0.01 µM
8,"CCC(=O)NCCNC(=O)/N=C(/N)NCCC[C@@H](NC(=O)[C@H](c1cccc(N(C)CCCNC(=O)CCCCCNC(=O)CN2CCN(CC(=O)O)CCN(CC(=O)O)CCN(CC(=O)O)CC2)c1)N1Cc2ccccc2C1)C(=O)NCc1ccc(O)cc1 [compound 11, 2,2′,2″-(10-(2-((6-((3-((3-((1S,4R,Z)-9-amino-4-((4-hydroxybenzyl)carbamoyl)-1-(isoindolin-2-yl)-2,11,16-trioxo-3,8,10,12,15-pentaazaoctadec-9-en-1-yl)phenyl)(methyl)amino)propyl)amino)-6-oxohexyl)amino)-2-oxoethyl)-1,4,7,10-tetraazacyclododecane-1,4,7-triyl)triacetic acid]",< 0.01 µM
9,"CCC(=O)NCCNC(=O)/N=C(/N)NCCC[C@@H](NC(=O)[C@H](c1cccc(OCCCNC(=O)CCCCCNC(=O)CN2CCN(CC(=O)O)CCN(CC(=O)O)CCN(CC(=O)O)CC2)c1)N1Cc2ccccc2C1)C(=O)NCc1ccc(O)cc1 [compound 12, 2,2′,2″-(10-(2-((6-((3-(3-((1S,4R,Z)-9-amino-4-((4-hydroxybenzyl)carbamoyl)-1-(isoindolin-2-yl)-2,11,16-trioxo-3,8,10,12,15-pentaazaoctadec-9-en-1-yl)phenoxy)propyl)amino)-6-oxohexyl)amino)-2-oxoethyl)-1,4,7,10-tetraazacyclododecane-1,4,7-triyl)triacetic acid]",< 0.01 µM
10,"CCNC(=O)/N=C(/N)NCCC[C@@H](NC(=O)[C@H](c1cccc(NCCCNC(=O)[C@H](N)CCCCNC(=O)CN2CCN(CC(=O)O)CCN(CC(=O)O)CCN(CC(=O)O)CC2)c1)N1Cc2ccccc2C1)C(=O)NCc1c(F)cc(O)cc1F [compound 13, 2,2′,2″-(10-(2-(((R)-5-amino-6-((3-((3-((11R,14S,Z)-6-amino-11-((2,6-difluoro-4-hydroxybenzyl)carbamoyl)-14-(isoindolin-2-yl)-4,13-dioxo-3,5,7,12-tetraazatetradec-5-en-14-yl)phenyl)amino)propyl)amino)-6-oxohexyl)amino)-2-oxoethyl)-1,4,7,10-tetraazacyclododecane-1,4,7-triyl)triacetic acid]",< 0.01 µM
11,"CCNC(=O)/N=C(/N)NCCC[C@@H](NC(=O)[C@H](c1cccc(NCCCNC(=O)CCOCCNC(=O)CN2CCN(CC(=O)O)CCN(CC(=O)O)CCN(CC(=O)O)CC2)c1)N1Cc2ccccc2C1)C(=O)NCc1c(F)cc(O)cc1F [compound 14, 2,2′,2″-(10-(2-((2-(3-((3-((3-((11R,14S,Z)-6-amino-11-((2,6-difluoro-4-hydroxybenzyl)carbamoyl)-14-(isoindolin-2-yl)-4,13-dioxo-3,5,7,12-tetraazatetradec-5-en-14-yl)phenyl)amino)propyl)amino)-3-oxopropoxy)ethyl)amino)-2-oxoethyl)-1,4,7,10-tetraazacyclododecane-1,4,7-triyl)triacetic acid]",< 0.01 µM
12,"CCC(=O)NCCNC(=O)/N=C(/N)NCCC[C@@H](NC(=O)[C@H](c1ccc(OCCCNC(=O)CCOCCNC(=O)CN2CCN(CC(=O)O)CCN(CC(=O)O)CCN(CC(=O)O)CC2)cc1)N1Cc2ccccc2C1)C(=O)NCc1ccc(O)cc1 [compound 15, 2,2′,2″-(10-(2-((2-(3-((3-(4-((1S,4R,Z)-9-amino-4-((4-hydroxybenzyl)carbamoyl)-1-(isoindolin-2-yl)-2,11,16-trioxo-3,8,10,12,15-pentaazaoctadec-9-en-1-yl)phenoxy)propyl)amino)-3-oxopropoxy)ethyl)amino)-2-oxoethyl)-1,4,7,10-tetraazacyclododecane-1,4,7-triyl)triacetic acid]",< 0.01 µM
13,"CCC(=O)NCCNC(=O)/N=C(/N)NCCC[C@@H](NC(=O)[C@H](c1ccc(OCCCNc2c(NCCNC(=O)CN3CCN(CC(=O)O)CCN(CC(=O)O)CCN(CC(=O)O)CC3)c(=O)c2=O)cc1)N1Cc2ccccc2C1)C(=O)NCc1ccc(O)cc1 [compound 16, 2,2′,2″-(10-(2-((2-((2-((3-(4-((1S,4R,Z)-9-amino-4-((4-hydroxybenzyl)carbamoyl)-1-(isoindolin-2-yl)-2,11,16-trioxo-3,8,10,12,15-pentaazaoctadec-9-en-1-yl)phenoxy)propyl)amino)-3,4-dioxocyclobut-1-en-1-yl)amino)ethyl)amino)-2-oxoethyl)-1,4,7,10-tetraazacyclododecane-1,4,7-triyl)triacetic acid]",< 0.01 µM
14,"CCC(=O)NCCNC(=O)/N=C(/N)NCCC[C@@H](NC(=O)[C@H](c1ccc(OCCCNC(=O)CCOCCNC(=O)c2ccc(CNC(=O)CN3CCN(CC(=O)O)CCN(CC(=O)O)CCN(CC(=O)O)CC3)cc2)cc1)N1Cc2ccccc2C1)C(=O)NCc1ccc(O)cc1 [compound 17, 2,2′,2″-(10-(2-((4-((2-(3-((3-(4-((1S,4R,Z)-9-amino-4-((4-hydroxybenzyl)carbamoyl)-1-(isoindolin-2-yl)-2,11,16-trioxo-3,8,10,12,15-pentaazaoctadec-9-en-1-yl)phenoxy)propyl)amino)-3-oxopropoxy)ethyl)carbamoyl)benzyl)amino)-2-oxoethyl)-1,4,7,10-tetraazacyclododecane-1,4,7-triyl)triacetic acid]",< 0.01 µM
